According to patent US4320117A, “Polypeptide” (Imperial Chemical Industries Limited, priority 1976, dated 1982):
Square brackets hold non-standard residues; d marks the D form. Peptide text beside a SMILES is read from it.

Assays:
[1] = tested on: mouse hot-plate test (thermal stimulus, 56° C.); test: mouse hot-plate test; type: in vivo, mice; conditions: for mean increase in reaction time: female mice, hot plate at 56° C.
Protocol: As noted above, the compound of the formula I has analgesic activity in warm-blooded animals. […] This test is carried out as follows. Groups of three female mice each weighing 22 to 25g. are used to test each compound. Each mouse is placed on a heated thermostatically-controlled copper surface at 56° C., and the time taken to react to the thermal stimulus (for example by licking its hind paws) is recorded. Normal reaction times are in the range of 3 to 5 seconds.
Each of the three mice is then dosed intravenously with 100 mg./kg. of a solution of the test compound. At 5, 10 and 30 minutes after dosing, each mouse is again placed on the hot plate and its reaction time determined. […] In this circumstance the compound is regarded as having maximum activity at this dose.
A compound producing a mean increase in reaction time of at least three seconds is regarded as active. An active compound is then retested at lower doses.

[2] = tested on: cat; conditions: injected directly into the 3rd ventricle of the cat; cited from earlier work

## CC[C@H](C)[C@H](NC(=O)[C@H](C)NC(=O)[C@H](CC(N)=O)NC(=O)[C@H](CCCCN)NC(=O)[C@H](Cc1ccccc1)NC(=O)[C@H](CC(C)C)NC(=O)[C@@H](NC(=O)[C@@H](NC(=O)[C@H](CC(C)C)NC(=O)[C@@H]1CCCN1C(=O)[C@@H](NC(=O)[C@H](CCC(N)=O)NC(=O)[C@H](CO)NC(=O)[C@H](CCCCN)NC(=O)[C@H](CCC(=O)O)NC(=O)[C@H](CO)NC(=O)[C@@H](NC(=O)[C@H](CC(C)C)NC(=O)[C@H](Cc1ccccc1)NC(=O)CNC(=O)[C@@H](C)NC(=O)[C@@H](N)Cc1ccc(O)cc1)[C@@H](C)O)[C@@H](C)O)C(C)C)[C@@H](C)O)C(=O)N[C@H](C(=O)N[C@@H](CCCCN)C(=O)N[C@@H](CC(N)=O)C(=O)N[C@@H](C)C(=O)N[C@@H](Cc1c[nH]cn1)C(=O)N[C@@H](CCCCN)C(=O)N[C@@H](CCCCN)C(=O)NCC(=O)N[C@@H](CCC(N)=O)C(=O)O)C(C)C [Example] (H-Y[dA]GFLTSEKSQTPLVTLFKNAIVKNAHKKGQ-OH)
[1]; intravenous dose of 100 mg./kg.
  mean increase in reaction time: 15 s
[1]; intravenous, 25 mg./kg.
  mean increase in reaction time: 6 s
[1]; mice, intravenous, 100 mg./kg.
  duration of analgesic effect: at least 3 hours
  signs of toxicity: no obvious signs of toxicity

## β-endorphin: residues 61-91 of the naturally-occurring lipolytic polypeptide hormone lipotropin (C-fragment of lipotropin) (YGGFMTSEKSQTPLVTLFKNAIIKNAYKKGE; Beta-endorphin; UniProt P01189 237-267, looked up)
[2]
  analgesic properties: possesses analgesic properties
